Measured values taken from US8598383B2, “Pharmaceutical composition for treating or preventing degenerative and inflammatory diseases” (Neurotech Pharmaceuticals Co., Ltd., priority 2006, dated 2013).

Key:
[1] = test system: TNF-α production in BV2 cell line; assay: Suppressing effect on production of cytokine (ELISA), TNF-α; format: cell-based; details: Mus musculus, BV-2, level in medium, LPS + 100 uM of sample, 24 hours
Experimental: Effects of the 2-hydroxybenzoic acid derivatives on production of cytokine in BV2 cell line were evaluated. 24-well plate was inoculated with 1×10^6 cells of BV2 cell line, and treated with both LPS, inflammation-inducing material, and 100 uM of sample (the 2-hydroxybenzoic acid derivative or comparative drug), together. After 24 hours of incubation, culture medium was collected. The levels of cytokines, TNF-α and IL-6, in the medium were evaluated by ELISA method.

TNF-α mRNA in AGS cell = assay: Expression of TNF-α mRNA in ethanol-treated AGS cells (RT-PCR); format: cell-based, human; details: 1-100 uM, ethanol 24 hours
Experimental: FIG. 7 is a picture showing the expression degree of TNF-α mRNA. Cultured AGS cell was treated with 25 mM of alcohol for 24 hours, alone or with compound 2 having indicated concentration. Then, mRNA was extracted and evaluated by RT-PCR method.
As one marker of inflammation, the expression level of TNF-α mRNA was evaluated by RT-PCR method. Samples treated with ethanol for 24 hours were used.

NSAID-induced gastritis = assay: Gastritis caused by NSAID (indomethacine); format: in vivo, rat; details: indomethacine 6 hour and 12 hour models; given 1 hour before NSAID
Experimental: FIG. 10 is results showing protecting effect of compound 2 on gastritis induced by NSAID. 250 g of rat was fasted for 24 hours, and indomethacin was orally administered to cause gastrointestinal bleeding (A and C). Compound 2 was administered 1 hour before administration of NSAID (B and D), and stomach was taken out 6 hours (A and B) or 12 hours (C and D) after gastrointestinal bleeding.
Effect of the 2-hydroxybenzoic acid derivative on NSAID-induced gastritis was evaluated.

[2] = test system: thermal hyperalgesia induced by carrageenan; assay: Carrageenan-induced thermal hyperalgesia; format: in vivo, rat
Experimental: FIG. 11 is results showing efficacy of compound 2 through thermal hyperalgesia induced by carrageenan, one of arthritis animal models. 2% carrageenan was intradermally injected into hindpaw of rat to induce thermal hyperalgesia.
Analgesic effect of compound 2, one example of the 2-hydroxybenzoic acid derivative, was evaluated in arthritis model. 2% carrageenan was intradermally injected into left pes of rat, and 3-300 mg/kg of compound 2 was orally administered to evaluate effect of compound 2 on thermal hyperalgesia of arthritis model.

[3] = test system: TNF-alpha in exudation of air pouch; assay: Zymosan air pouch inflammation model, TNF-alpha (ELISA); format: in vivo; details: over 30 mg/kg, once oral 1 hour before zymosan, 4 hours later
Experimental: (§1) FIG. 12 is results showing efficacy of compound 2 through the levels of TNF-alpha induced by zymosan, one of arthritis animal models. 1% zymosan was administered with air pouch, and compound 2 was once orally administered according to indicated dose 1 hour before administration of zymosan. The level of TNF-alpha in an exudation of air pouch was evaluated by ELISA method 4 hours later.
(§2) Anti-inflammation effect of compound 2 in arthritis model was evaluated with zymosan. 0.5 ml of 1% zymosan was administered with air pouch, and 3-300 mg/kg of compound 2 was once orally administered 1 hour before administration of zymosan. Edema, a main symptom of arthritis, and the level of cytokine were observed 4 hours later.

[4] = test system: IL-1alpha in exudation of air pouch; assay: Zymosan air pouch inflammation model, IL-1alpha (ELISA); format: in vivo; details: 3-300 mg/kg once oral 1 hour before zymosan, 4 hours later
Experimental: as §1, with “13” for “12”, “graphs” for “results”, “how much” for “efficacy of”, “decreases” for “through”, “level” for “levels”, “IL-1alpha” for “TNF-alpha”
as §2

[5] = test system: collagen-induced arthritis; assay: Collagen-induced arthritis model (arthritic index); format: in vivo, mouse; details: 25 mg/kg/day intraperitoneal
Experimental: FIG. 15 is results showing efficacy through arthritis animal model induced by collagen. 25 mg/kg of compound 2, 3 or 18, or methotrexate (control, MTX, 1 mg/kg/week) was intraperitoneally injected after administration of collagen.
FIG. 16 is results showing efficacy of compounds 6 and 11 through arthritis animal model induced by collagen. Collagen was intradermally injected two times with 2 week-interval. One week later, compound 6, compound 11 and methotrexate (control) were intraperitoneally injected. Then, the animals were observed everyday for 2-3 weeks, and results was evaluated by arthritis index.
To evaluate the efficacy of the 2-hydroxybenzoic acid derivative, collagen-induced arthritis model (rheumarthritis animal model) was used. Bovine type II collagen was mixed with complete Freund's adjuvant to make an emulsion, and the emulsion was intradermally injected into the origin site of 8˜10 week-old DBA/1LacJ mouse tail. Intradermal boosting was performed by the same method 2 weeks later. 25 mg/kg/day of compounds 2, 3 and 18, 1 mg/kg/week of methotrexate (comparative example) or 10% vehicle (control) were intraperitoneally injected one week after the second intradermal injection of collagen (FIG. 15). Pictures of foot edema of normal rat (sham), collagen-administered rat (collagen) and compound 18-administered rat (compound 18, 25 mg/kg/day injection) were shown in FIG. 14.
In addition, 50 mg/kg/day of compounds 6 and 11, and 5 mg/kg/2 days of methotrexate (comparative example) were intraperitoneally injected. Phosphate buffered saline was injected as control (FIG. 16). For 2˜3 weeks, the degree of arthritis was observed everyday, and the result was evaluated according to the below arthritic index using edema.
4 paws were evaluated as from 0 to 4 point, Total points: 16

[6] = test system: brain-blood vessel barrier; assay: Brain-blood vessel barrier protection in APP/PS1 mice (Evans blue); format: in vivo, mouse; details: chow from 2 to 5 month-old; compound 2 25 mg/kg/day, ibuprofen 62.5 mg/kg/day
Experimental: Damage of brain blood vessel is well known in Alzheimer's disease. […] of 2% Evans blue dye was administered into blood vessel of 5 month-old APP/PS1 dementia mouse.

[7] = test system: microglia in lumbar ventral horn; assay: Microglia activation in G93A ALS mouse (TOMATO Lectin); format: in vivo; details: 5 mg/kg/day
Experimental: G93A (Glycine ? Alanine) transgenic mouse having similar pathophysiological characteristics with ALS (amyotrophic lateral sclerosis) human patient was used to evaluate therapeutic effect of drug in ALS, one of main degenerative brain diseases.
Activation degree of microglia (a marker of inflammation in brain disease model) expressed in the lumbar ventral horn of G93A mouse were evaluated with TOMATO Lectin dye. In G93A mouse, microglia was more activated compared to the wild type mouse.

TNF-α and IL-1β mRNA = assay: Cytokine mRNA expression in G93A mouse (RT-PCR); format: in vivo; details: 5 mg/kg/day in chow, 16 week-old, lumbar segments
Experimental: FIG. 30 is results showing the levels of mRNA of inflammatory cytokines (TNF-α and IL-1β), markers of inflammation, in G93A mouse. RT-PCR (Reverse Transcription-Polymerase Chain Reaction) was used.
Lumbar segments of 16 week-old G93A mice fed with general chow only, and 16 week-old G93A mice fed with chow containing 5 mg/kg/day of compound 2 were extracted and their RNA were separated. The mRNA expression degrees of TNF-α and IL-1β, inflammatory cytokines, were evaluated through RT-PCT.

O=C(O)c1cc(NCCc2ccc(C(F)(F)F)cc2)ccc1O [compound 2, 2-hydroxy-5-[2-(4-trifluoromethyl-phenyl)-ethylamino]-benzoic acid]
inhibition at 100 µM [1]: 62.3%
expression of TNF-α mRNA (TNF-α mRNA in AGS cell): completely suppressed
protecting effect on stomach (NSAID-induced gastritis): excellent protecting effect on stomach
thermal hyperalgesia, comparison with ibuprofen ([2]; 100 mg treatment): equivalent level of decreasing effect with 50 mg/kg of ibuprofen
reduction of thermal hyperalgesia ([2]; 300 mg/kg oral): over 90%
thermal hyperalgesia ([2]; 3-300 mg/kg oral): decreased thermal hyperalgesia in a dose-dependent manner
level of TNF-alpha [3]: decreased the level of TNF-alpha more than control
level of IL-1alpha [4]: decreased in a dose-dependent manner
arthritic index [5]: apparent reducing effect
protecting effect on brain-blood vessel barrier [6]: protecting effects on brain-blood vessel barrier were shown
number and activation degree of microglia [7]: decreased the number and activation degree of microglia
mRNA expression of TNF-α and IL-1β (TNF-α and IL-1β mRNA): effectively reduced inflammatory cytokines
